Results reported in ChEMBL document CHEMBL3868595, “Plazomicin is effective in a non-human primate pneumonic plague model” (Bioorg Med Chem, 2016).
Calls of active or inactive are those of the source. The calls are words filed in the database; no cut-off is given here.

Legend:
[1] = Elimination half life in African green monkey blood at 25 mg/kg administered as iv infusion twice daily for 7 consecutive days measured on day 1 by LC-MS/MS analysis; assay type: ADME, organism-based; conditions: chlorocebus aethiops, read-out: beta t1/2 (converted)
[2] = Elimination half life in African green monkey blood at 35 mg/kg administered as iv infusion twice daily for 7 consecutive days measured on day 7 by LC-MS/MS analysis; assay type: ADME, organism-based; conditions: chlorocebus aethiops, read-out: beta t1/2 (converted)
[3] = Clearance in African green monkey blood at 25 mg/kg administered as iv infusion twice daily for 7 consecutive days measured on day 1 by LC-MS/MS analysis; assay type: ADME, organism-based; conditions: chlorocebus aethiops
[4] = Volume of distribution at steady state in African green monkey blood at 25 mg/kg administered as iv infusion twice daily for 7 consecutive days measured on day 1 by LC-MS/MS analysis; assay type: ADME, organism-based; conditions: chlorocebus aethiops, read-out: Vdss
[5] = Volume of distribution at steady state in African green monkey blood at 25 mg/kg administered as iv infusion twice daily for 7 consecutive days measured on day 7 by LC-MS/MS analysis; assay type: ADME, organism-based; conditions: chlorocebus aethiops, read-out: Vdss
[6] = tested on: African green monkey; experiment: Toxicity in African green monkey assessed as effect on serum creatinine level at 25 mg/kg administered as iv infusion twice daily for 7 consecutive days measured on day 1 by LC-MS/MS analysis; assay type: organism-based; conditions: chlorocebus sabaeus, in vivo
[7] = tested on: Yersinia pestis; experiment: Antibacterial activity against Yersinia pestis Colorado 92 infected in African green monkey assessed as improvement in survival of monkey at 6.25 to 25 mg/kg, iv administered within 6 hrs post onset of sustained fever as 30 mins infusion for 10 days; assay type: functional, organism-based; conditions: CO92
[8] = tested on: Yersinia pestis; experiment: (§1) Antibacterial activity against Yersinia pestis Colorado 92 infected in African green monkey B6469 model assessed as bacterial burden in lung at 25 mg/kg, iv administered within 6 hrs post onset of sustained fever as 30 mins infusion for 5 days (reference value: 7.7 10^8CFU/g); assay type: functional, CO92
[9] = tested on: Yersinia pestis; experiment: Antibacterial activity against Yersinia pestis Colorado 92 infected in African green monkey B6106 model assessed as bacterial burden in lung at 25 mg/kg, iv administered within 6 hrs post onset of sustained fever as 30 mins infusion for 5 days (reference value: 7.7 10^8CFU/g); assay type: functional, CO92
[10] = tested on: Yersinia pestis; experiment: Antibacterial activity against Yersinia pestis Colorado 92 infected in African green monkey B6106 model assessed as bacterial burden in spleen at 25 mg/kg, iv administered within 6 hrs post onset of sustained fever as 30 mins infusion for 5 days (reference value: 1.6 10^9CFU/g); assay type: functional, CO92
[11] = tested on: Yersinia pestis; experiment: Antibacterial activity against Yersinia pestis Colorado 92 infected in African green monkey B6415 model assessed as bacterial burden in spleen at 25 mg/kg, iv administered within 6 hrs post onset of sustained fever as 30 mins infusion for 5 days (reference value: 1.6 10^9CFU/g); assay type: functional, CO92
[12] = tested on: Yersinia pestis; experiment: (§2) Antibacterial activity against Yersinia pestis Colorado 92 infected in African green monkey B6889 model assessed as bacterial burden in spleen at 6.25 mg/kg, iv administered within 6 hrs post onset of sustained fever as 30 mins infusion for 5 days (reference value: 1.6 10^9CFU/g); assay type: functional, CO92
[13] = tested on: Yersinia pestis; experiment: Antibacterial activity against Yersinia pestis Colorado 92 infected in African green monkey B6872 model assessed as bacterial burden in liver at 25 mg/kg, iv administered within 6 hrs post onset of sustained fever as 30 mins infusion for 5 days (reference value: 5.2 10^8CFU/g); assay type: functional, organism-based; conditions: CO92
[14] = tested on: Yersinia pestis; experiment: Antibacterial activity against Yersinia pestis Colorado 92 infected in African green monkey B6436 model assessed as bacterial burden in kidney at 25 mg/kg, iv administered within 6 hrs post onset of sustained fever as 30 mins infusion for 5 days (reference value: 7.1 10^7CFU/g); assay type: functional, organism-based; conditions: CO92
[15] = tested on: Yersinia pestis; experiment: Antibacterial activity against Yersinia pestis Colorado 92 infected in African green monkey B6872 model assessed as bacterial burden in kidney at 25 mg/kg, iv administered within 6 hrs post onset of sustained fever as 30 mins infusion for 5 days (reference value: 7.1 10^7CFU/g); assay type: functional, organism-based; conditions: CO92
[16] = tested on: Yersinia pestis; experiment: Antibacterial activity against Yersinia pestis Colorado 92 infected in African green monkey B6960 model assessed as bacterial burden in kidney at 6.25 mg/kg, iv administered within 6 hrs post onset of sustained fever as 30 mins infusion for 5 days (reference value: 7.1 10^7CFU/g); assay type: functional, CO92
[17] = tested on: Yersinia pestis; experiment: as §1, with “B6873” for “B6469”, “tracheobronchial lymph nodes” for “lung”, “12.5” for “25”, “10^9CFU/g)” for “10^8CFU/g)”; assay type: functional, organism-based; conditions: CO92, Lymph node
[18] = tested on: Yersinia pestis; experiment: as §1, with “C2083” for “B6469”, “tracheobronchial lymph nodes” for “lung”, “12.5” for “25”, “10^9CFU/g)” for “10^8CFU/g)”; assay type: functional, CO92, Lymph node
[19] = tested on: Yersinia pestis; experiment: as §2, with “monkey 8047” for “monkey B6889”, “in tracheobronchial lymph nodes” for “in spleen”, “for 10” for “for 5”, “value: 7.7” for “value: 1.6”; assay type: functional, CO92, Lymph node
[20] = tested on: Yersinia pestis; experiment: Antibacterial activity against Yersinia pestis Colorado 92 infected in African green monkey B6873 model assessed as bacterial burden in heart at 12.5 mg/kg, iv administered within 6 hrs post onset of sustained fever as 30 mins infusion for 5 days (reference value: 2.6 10^7CFU/g); assay type: functional, organism-based; conditions: CO92
[21] = tested on: Yersinia pestis; experiment: Antibacterial activity against Yersinia pestis Colorado 92 infected in African green monkey C2083 model assessed as bacterial burden in brain at 12.5 mg/kg, iv administered within 6 hrs post onset of sustained fever as 30 mins infusion for 5 days (reference value: 1.9 10^6CFU/g); assay type: functional, CO92
[22] = tested on: African green monkey; experiment: Toxicity in African green monkey B5994 model infected with Yersinia pestis Colorado 92 assessed as serum creatinine level at 25 mg/kg, iv administered within 6 hrs post onset of sustained fever as 30 mins infusion for 10 days (reference value: 0.6 mg/dl); assay type: organism-based; conditions: chlorocebus sabaeus, in vivo
[23] = tested on: African green monkey; experiment: Toxicity in African green monkey B6408 model infected with Yersinia pestis Colorado 92 assessed as serum creatinine level at 25 mg/kg, iv administered within 6 hrs post onset of sustained fever as 30 mins infusion for 10 days (reference value: 0.5 mg/dl); assay type: organism-based; conditions: chlorocebus sabaeus, in vivo
[24] = tested on: African green monkey; experiment: Toxicity in African green monkey 7337 model infected with Yersinia pestis Colorado 92 assessed as serum alanine aminotransferase level at 25 mg/kg, iv administered within 6 hrs post onset of sustained fever as 30 mins infusion for 10 days (reference value: 55 IU/L); assay type: organism-based; conditions: chlorocebus sabaeus, in vivo
[25] = tested on: African green monkey; experiment: Toxicity in African green monkey B5994 model infected with Yersinia pestis Colorado 92 assessed as serum lactate dehydrogenase level at 25 mg/kg, iv administered within 6 hrs post onset of sustained fever as 30 mins infusion for 10 days (reference value: 364 IU/L); assay type: organism-based; conditions: chlorocebus sabaeus, in vivo
[26] = tested on: African green monkey; experiment: Toxicity in African green monkey B6291 model infected with Yersinia pestis Colorado 92 assessed as serum lactate dehydrogenase level at 25 mg/kg, iv administered within 6 hrs post onset of sustained fever as 30 mins infusion for 10 days (reference value: 212 IU/L); assay type: organism-based; conditions: chlorocebus sabaeus, in vivo
[27] = Toxicity in African green monkey 8067 model infected with Yersinia pestis Colorado 92 assessed as total white blood cell count at 25 mg/kg, iv administered within 6 hrs post onset of sustained fever as 30 mins infusion for 10 days (reference value: 10 10^3/microL); assay type: organism-based; conditions: chlorocebus aethiops, in vivo

CN[C@@H]1[C@@H](O)[C@@H](O[C@@H]2[C@@H](O)[C@H](O[C@H]3OC(CNCCO)=CC[C@H]3N)[C@@H](N)C[C@H]2NC(=O)[C@@H](O)CCN)OC[C@]1(C)O [PLAZOMICIN]
half-life [1]: 1.8 h | half-life [2]: 1.7 h | clearance [3]: 2.17 mL/min/kg | Vd [4]: 0.33 L/kg | Vd [5]: 0.36 L/kg | Activity [6]: 0.55 mg/dL | Activity [7]: Active | Activity [8]: 21 CFU/g | Activity [9]: 19 CFU/g | Activity [10]: 31 CFU/g | Activity [11]: 90 CFU/g | Activity [12]: 6.2 ×10⁶ CFU/g | Activity [13]: Below limit of detection | Activity [14]: Below limit of detection | Activity [15]: Below limit of detection | Activity [16]: 72 CFU/g | Activity [17]: Below limit of detection | Activity [18]: 8 ×10⁹ CFU/g | Activity [19]: 2 ×10⁹ CFU/g | Activity [20]: Below limit of detection | Activity [21]: 2.2 ×10⁶ CFU/g | Activity [22]: 0.5 mg/dL | Activity [23]: 0.4 mg/dL | Activity [24]: 44 IU/L | Activity [25]: 403 IU/L | Activity [26]: 259 IU/L | Activity [27]: 9.4 ×10³ /uL
